Like-named read-outs stand apart in the source and are kept apart here.
Test: 28-day repeat-dose toxicity study, toxicokinetics of AMXT 1501 dicaprate
Type: in vivo, beagle dogs
Details: both sexes, beagle, dog, plasma, po
Protocol: AMXT 1501 PK parameters were calculated for all AMXT 1501 dicaprate-dosed animals for the first dose (Day 1) and last dose (Day 28).

CCCCCCCCCCCCCCCC(=O)NCCCC[C@@H](N)C(=O)NCCCNCCCCNCCCN [AMXT 1501 dicaprate] showed an AUC(0-t) (8 mg/kg/day, 8 mg/kg/day PO, DFMO 0, Day 1, M+F combined, read-out: AUC0-24 hr Median) of 1500 ng·h/mL, a Cmax (8 mg/kg/day, 8 mg/kg/day PO, DFMO 0, Day 1, M+F combined, read-out: Cmax Mean) of 95.6 ng/mL and a Cmax (8 mg/kg/day, 8 mg/kg/day PO, DFMO 0, Day 1, M+F combined, read-out: Cmax Median) of 115 ng/mL. The Tmax (8 mg/kg/day, 8 mg/kg/day PO, DFMO 0, Day 1, M+F combined, read-out: Tmax Mean) was 5.33 h, the Tmax (8 mg/kg/day, 8 mg/kg/day PO, DFMO 0, Day 1, M+F combined, read-out: Tmax Median) was 6 h and the AUC(0-t) (8 mg/kg/day, 8 mg/kg/day PO, DFMO 0, Day 28, M+F combined, read-out: AUC0-24 hr Mean) was 2210 ng·h/mL. For the same compound, the AUC(0-t) (8 mg/kg/day, 8 mg/kg/day PO, DFMO 0, Day 28, M+F combined, read-out: AUC0-24 hr Median) was 1690 ng·h/mL, the AUC(0-t) (8 mg/kg/day, 8 mg/kg/day PO, DFMO 0, Day 28, M+F combined, read-out: AUC0-t Mean) was 3390 ng·h/mL and the AUC(0-t) (8 mg/kg/day, 8 mg/kg/day PO, DFMO 0, Day 28, M+F combined, read-out: AUC0-t Median) was 1900 ng·h/mL. The AUC(0-inf) (8 mg/kg/day, 8 mg/kg/day PO, DFMO 0, Day 28, M+F combined, read-out: AUC0-∞ Mean) was 3440 ng·h/mL, the AUC(0-inf) (8 mg/kg/day, 8 mg/kg/day PO, DFMO 0, Day 28, M+F combined, read-out: AUC0-∞ Median) was 1930 ng·h/mL and the Cmax (8 mg/kg/day, 8 mg/kg/day PO, DFMO 0, Day 28, M+F combined, read-out: Cmax Mean) was 153 ng/mL. It also gave a Cmax (8 mg/kg/day, 8 mg/kg/day PO, DFMO 0, Day 28, M+F combined, read-out: Cmax Median) of 127 ng/mL, a Tmax (8 mg/kg/day, 8 mg/kg/day PO, DFMO 0, Day 28, M+F combined, read-out: Tmax Mean) of 4.6 h and a Tmax (8 mg/kg/day, 8 mg/kg/day PO, DFMO 0, Day 28, M+F combined, read-out: Tmax Median) of 6 h. The half-life (8 mg/kg/day, 8 mg/kg/day PO, DFMO 0, Day 28, M+F combined, read-out: t1/2 Mean (converted)) was 19.7 h, the half-life (8 mg/kg/day, 8 mg/kg/day PO, DFMO 0, Day 28, M+F combined, read-out: t1/2 Median (converted)) was 18.7 h and the AUC(0-t) (8 mg/kg/day, 8 mg/kg/day PO, DFMO 50 mg/kg/day, Day 28, M+F combined, read-out: AUC0-24 hr Mean) was 2120 ng·h/mL. For the same compound, the AUC(0-t) (8 mg/kg/day, 8 mg/kg/day PO, DFMO 50 mg/kg/day, Day 28, M+F combined, read-out: AUC0-24 hr Median) was 2250 ng·h/mL, the AUC(0-t) (8 mg/kg/day, 8 mg/kg/day PO, DFMO 50 mg/kg/day, Day 28, M+F combined, read-out: AUC0-t Mean) was 3010 ng·h/mL and the AUC(0-t) (8 mg/kg/day, 8 mg/kg/day PO, DFMO 50 mg/kg/day, Day 28, M+F combined, read-out: AUC0-t Median) was 2970 ng·h/mL. It also gave an AUC(0-inf) (8 mg/kg/day, 8 mg/kg/day PO, DFMO 50 mg/kg/day, Day 28, M+F combined, read-out: AUC0-∞ Mean) of 3070 ng·h/mL, an AUC(0-inf) (8 mg/kg/day, 8 mg/kg/day PO, DFMO 50 mg/kg/day, Day 28, M+F combined, read-out: AUC0-∞ Median) of 3020 ng·h/mL and a Cmax (8 mg/kg/day, 8 mg/kg/day PO, DFMO 50 mg/kg/day, Day 28, M+F combined, read-out: Cmax Mean) of 152 ng/mL. It also gave a Cmax (8 mg/kg/day, 8 mg/kg/day PO, DFMO 50 mg/kg/day, Day 28, M+F combined, read-out: Cmax Median) of 171 ng/mL, a Tmax (8 mg/kg/day, 8 mg/kg/day PO, DFMO 50 mg/kg/day, Day 28, M+F combined, read-out: Tmax Mean) of 6.67 h and a Tmax (8 mg/kg/day, 8 mg/kg/day PO, DFMO 50 mg/kg/day, Day 28, M+F combined, read-out: Tmax Median) of 6 h. For the same compound, the half-life (8 mg/kg/day, 8 mg/kg/day PO, DFMO 50 mg/kg/day, Day 28, M+F combined, read-out: t1/2 Mean (converted)) was 18 h, the half-life (8 mg/kg/day, 8 mg/kg/day PO, DFMO 50 mg/kg/day, Day 28, M+F combined, read-out: t1/2 Median (converted)) was 20.3 h and the AUC(0-t) (8 mg/kg/day, 8 mg/kg/day PO, DFMO 200 mg/kg/day, Day 1, M+F combined, read-out: AUC0-24 hr Mean) was 1470 ng·h/mL. The AUC(0-t) (8 mg/kg/day, 8 mg/kg/day PO, DFMO 200 mg/kg/day, Day 1, M+F combined, read-out: AUC0-24 hr Median) was 1390 ng·h/mL, the Cmax (8 mg/kg/day, 8 mg/kg/day PO, DFMO 200 mg/kg/day, Day 1, M+F combined, read-out: Cmax Mean) was 101 ng/mL and the Cmax (8 mg/kg/day, 8 mg/kg/day PO, DFMO 200 mg/kg/day, Day 1, M+F combined, read-out: Cmax Median) was 86.5 ng/mL. For the same compound, the Tmax (8 mg/kg/day, 8 mg/kg/day PO, DFMO 200 mg/kg/day, Day 1, M+F combined, read-out: Tmax Mean) was 9 h, the Tmax (8 mg/kg/day, 8 mg/kg/day PO, DFMO 200 mg/kg/day, Day 1, M+F combined, read-out: Tmax Median) was 9 h and the AUC(0-t) (16 mg/kg/day, 16 mg/kg/day PO, DFMO 0, Day 1, M+F combined, read-out: AUC0-24 hr Mean) was 2500 ng·h/mL. For the same compound, the AUC(0-t) (16 mg/kg/day, 16 mg/kg/day PO, DFMO 0, Day 1, M+F combined, read-out: AUC0-24 hr Median) was 1750 ng·h/mL, the Cmax (16 mg/kg/day, 16 mg/kg/day PO, DFMO 0, Day 1, M+F combined, read-out: Cmax Mean) was 155 ng/mL and the Cmax (16 mg/kg/day, 16 mg/kg/day PO, DFMO 0, Day 1, M+F combined, read-out: Cmax Median) was 113 ng/mL. For the same compound, the Tmax (16 mg/kg/day, 16 mg/kg/day PO, DFMO 0, Day 1, M+F combined, read-out: Tmax Mean) was 6 h, the Tmax (16 mg/kg/day, 16 mg/kg/day PO, DFMO 0, Day 1, M+F combined, read-out: Tmax Median) was 6 h and the AUC(0-t) (16 mg/kg/day, 16 mg/kg/day PO, DFMO 0, Day 28, M+F combined, read-out: AUC0-24 hr Mean) was 4590 ng·h/mL. The AUC(0-t) (16 mg/kg/day, 16 mg/kg/day PO, DFMO 0, Day 28, M+F combined, read-out: AUC0-24 hr Median) was 4890 ng·h/mL and the AUC(0-t) (16 mg/kg/day, 16 mg/kg/day PO, DFMO 0, Day 28, M+F combined, read-out: AUC0-t Mean) was 7970 ng·h/mL.
